Results published in PMC4533898 (Biochemistry, 2015).

Columns and labels:
[1] = molecular target: Progesterone receptor membrane component 1 (hPGRMC1) (Homo sapiens, UniProt O00264, Y164F); experiment: UV-vis spectroscopy; assay type: binding
[2] = molecular target: Progesterone receptor membrane component 1 (hPGRMC1) (Homo sapiens, UniProt O00264, Y164H); experiment: UV-vis; assay type: binding
Sequence of Progesterone receptor membrane component 1 (hPGRMC1) (Homo sapiens, UniProt O00264, Y164H) (O00264 71-195 Y164H): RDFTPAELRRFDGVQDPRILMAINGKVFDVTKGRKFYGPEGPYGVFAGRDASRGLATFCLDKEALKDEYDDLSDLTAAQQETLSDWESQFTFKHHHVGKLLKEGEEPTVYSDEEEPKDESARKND

Sequence of Progesterone receptor membrane component 1 (hPGRMC1) (Homo sapiens, UniProt O00264, Y164F) (O00264 71-195 Y164F): as the sequence (O00264 71-195 Y164H) above, with H94F counted along it

heme
% of WT heme binding [1]: ~ 15 % of WT heme binding | % of WT heme binding [2]: ~ 90 % of WT heme binding
